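Following 48 hours of exposure in 96-well plates, responses at five concentrations were used to interpolate endpoints linearly. GI50 is the concentration that inhibits growth by half. TGI: total growth inhibition.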
These compounds were tested on A549 NSCLC (assay: NCI-60 cell line screen, 48 h).
With `Cn1cnnc1Sc1c([N+](=O)[O-])ncn1C` the TGI was over 100 µM. For `C=CCC1(CN(C)C)CC/C(=C\c2ccc(Cl)cc2)C1=O` (stereo not drawn), the TGI was over 100 µM. `C[Si](C)(C)/C(I)=C/CO` gave a TGI of 76.3 µM. `C[N+](C)(C)CC1CCC/C1=N\OC(=O)c1ccccc1` (stereo not drawn) gave a TGI of over 100 µM. For `CC(=O)N1CCC(=O)/C(=C/c2ccccc2)C1`, the TGI was over 100 µM. `CCCCCCCN=C(N)c1ccc(N2CCN(c3ccc(C(N)=NCCCCCCC)cc3)CC2)cc1` showed a GI50 of 0.26 µM and a TGI of 15 µM. `C[Si](C)(C)/C(Br)=C\CCN1C(=O)CCC1=O` showed a TGI of over 100 µM. `Cc1ccc(S(=O)OCc2c(C)c(C)c(COS(=O)c3ccc(C)cc3)c(C)c2C)cc1` (stereo not drawn) was tested, and the TGI was over 100 µM. `C[C@]12CCC(=O)C=C1CC[C@@H]1C2CC[C@]2(C)Nc3[nH]ncc3CC12` (stereo partly drawn) was tested, and the TGI was over 100 µM. In the case of `CC(C)(C)[Si](C)(C)OC1C(=O)C[C@H]2CCCC[C@@H]12` (stereo partly drawn), the TGI is reported as over 100 µM. Compound `CCN(CC)CCSc1c2ccccc2nc2c(OC)ccc(OC)c12` has a TGI of 50.1 µM. `COc1cc(/C=C\c2cc(OC)c(OC)c(OC)c2)cc(N/C=C\C(=O)c2cc(OC)c(OC)c(OC)c2)c1OC` was tested, and the GI50 was 5.14 µM and the TGI was over 100 µM. `Clc1nc(Cl)nc(Nc2cccc3ccccc23)n1` was tested, and the GI50 was over 100 µM and the TGI was over 100 µM. Work on `CCOC(=O)c1ccc(N=Nc2cc(C(=O)OCC)ccc2O)cc1` yielded a TGI of over 100 µM. Compound `[N-]=[N+]=N/C1=C/CCCCC(=O)C1` has a TGI of over 100 µM. `Cc1ccc(NC(=O)CCc2nnc(N)o2)cc1` showed a TGI of over 100 µM. Compound `CCOC(=O)C1SC(=Nc2ccccc2)N=C1C` (stereo not drawn) has a TGI of over 100 µM. `O=C1CCC(=O)c2c1c(O)c1ccncc1c2O` was tested, and the TGI was 43.5 µM. `C=CCN1CCC23c4c5ccc(O)c4OC2C(=NN=C2CCC4(O)C6Cc7ccc(O)c8c7C4(CCN6CC=C)C2O8)CCC3(O)C1C5` (stereo not drawn) was tested, and the TGI was 42.8 µM. Compound `CN(C)CCNC(=O)c1cccc2c(Nc3ccc(S(=O)(=O)N=C(N)N)cc3)c3ccccc3nc12` has a TGI of 48.4 µM. `COC(=O)C1=C(C(=O)OC)C2=S(SC3=C2CCCC3)S1` (stereo not drawn) gave a TGI of over 100 µM. In the case of `CC1(C)CC(=O)CC(=Nc2ccc([N+](=O)[O-])cc2)C1`, the TGI is reported as over 100 µM.

What follows are compounds tested on ACHN renal (assay: NCI-60 cell line screen, 48 h).
`Cn1cnnc1Sc1c([N+](=O)[O-])ncn1C` gave a TGI of over 100 µM. `C=CCC1(CN(C)C)CC/C(=C\c2ccc(Cl)cc2)C1=O` (stereo not drawn) showed a TGI of over 100 µM. With `C[Si](C)(C)/C(I)=C/CO` the TGI was 46.4 µM. In the case of `C[N+](C)(C)CC1CCC/C1=N\OC(=O)c1ccccc1` (stereo not drawn), the TGI is reported as over 100 µM. For `CC(=O)N1CCC(=O)/C(=C/c2ccccc2)C1`, the TGI was 56.8 µM. `CCCCCCCN=C(N)c1ccc(N2CCN(c3ccc(C(N)=NCCCCCCC)cc3)CC2)cc1` was tested, and the GI50 was 0.499 µM and the TGI was 24.8 µM. `C[Si](C)(C)/C(Br)=C\CCN1C(=O)CCC1=O` gave a TGI of over 100 µM. `Cc1ccc(S(=O)OCc2c(C)c(C)c(COS(=O)c3ccc(C)cc3)c(C)c2C)cc1` (stereo not drawn) was tested, and the TGI was over 100 µM. With `C[C@]12CCC(=O)C=C1CC[C@@H]1C2CC[C@]2(C)Nc3[nH]ncc3CC12` (stereo partly drawn) the TGI was over 100 µM. `CC(C)(C)[Si](C)(C)OC1C(=O)C[C@H]2CCCC[C@@H]12` (stereo partly drawn) showed a TGI of over 100 µM. With `CCN(CC)CCSc1c2ccccc2nc2c(OC)ccc(OC)c12` the TGI was over 23.5 µM. Work on `COc1cc(/C=C\c2cc(OC)c(OC)c(OC)c2)cc(N/C=C\C(=O)c2cc(OC)c(OC)c(OC)c2)c1OC` yielded a GI50 of 3.99 µM and a TGI of over 100 µM. Work on `Clc1nc(Cl)nc(Nc2cccc3ccccc23)n1` yielded a GI50 of 92.5 µM and a TGI of over 100 µM. For `CCOC(=O)c1ccc(N=Nc2cc(C(=O)OCC)ccc2O)cc1`, the TGI was over 100 µM. Compound `Cc1ccc(NC(=O)CCc2nnc(N)o2)cc1` has a TGI of over 100 µM. `CCOC(=O)C1SC(=Nc2ccccc2)N=C1C` (stereo not drawn) gave a TGI of over 100 µM. For `O=C1CCC(=O)c2c1c(O)c1ccncc1c2O`, the TGI was 28.6 µM. Compound `C=CCN1CCC23c4c5ccc(O)c4OC2C(=NN=C2CCC4(O)C6Cc7ccc(O)c8c7C4(CCN6CC=C)C2O8)CCC3(O)C1C5` (stereo not drawn) has a TGI of 41.2 µM. Work on `CN(C)CCNC(=O)c1cccc2c(Nc3ccc(S(=O)(=O)N=C(N)N)cc3)c3ccccc3nc12` yielded a TGI of 61.1 µM. Compound `COC(=O)C1=C(C(=O)OC)C2=S(SC3=C2CCCC3)S1` (stereo not drawn) has a TGI of over 100 µM. Work on `CC1(C)CC(=O)CC(=Nc2ccc([N+](=O)[O-])cc2)C1` yielded a TGI of over 100 µM.

These compounds were tested on CAKI-1 renal (assay: NCI-60 cell line screen, 48 h).
`Cn1cnnc1Sc1c([N+](=O)[O-])ncn1C` was tested, and the TGI was over 100 µM. In the case of `C=CCC1(CN(C)C)CC/C(=C\c2ccc(Cl)cc2)C1=O` (stereo not drawn), the TGI is reported as over 100 µM. `CC(=O)N1CCC(=O)/C(=C/c2ccccc2)C1` was tested, and the TGI was 30 µM. `CCCCCCCN=C(N)c1ccc(N2CCN(c3ccc(C(N)=NCCCCCCC)cc3)CC2)cc1` gave a GI50 of 0.474 µM and a TGI of 21.4 µM. In the case of `C[Si](C)(C)/C(Br)=C\CCN1C(=O)CCC1=O`, the TGI is reported as over 100 µM. Work on `Cc1ccc(S(=O)OCc2c(C)c(C)c(COS(=O)c3ccc(C)cc3)c(C)c2C)cc1` (stereo not drawn) yielded a TGI of over 100 µM. For `C[C@]12CCC(=O)C=C1CC[C@@H]1C2CC[C@]2(C)Nc3[nH]ncc3CC12` (stereo partly drawn), the TGI was over 100 µM. `CC(C)(C)[Si](C)(C)OC1C(=O)C[C@H]2CCCC[C@@H]12` (stereo partly drawn) was tested, and the TGI was over 100 µM. `CCN(CC)CCSc1c2ccccc2nc2c(OC)ccc(OC)c12` gave a TGI of over 22.2 µM. In the case of `COc1cc(/C=C\c2cc(OC)c(OC)c(OC)c2)cc(N/C=C\C(=O)c2cc(OC)c(OC)c(OC)c2)c1OC`, the GI50 is reported as 3.37 µM and the TGI is reported as over 100 µM. Compound `Clc1nc(Cl)nc(Nc2cccc3ccccc23)n1` has a GI50 of over 100 µM and a TGI of over 100 µM. `CCOC(=O)c1ccc(N=Nc2cc(C(=O)OCC)ccc2O)cc1` was tested, and the TGI was over 100 µM. For `[N-]=[N+]=N/C1=C/CCCCC(=O)C1`, the TGI was over 100 µM. `Cc1ccc(NC(=O)CCc2nnc(N)o2)cc1` gave a TGI of over 100 µM. Work on `O=C1CCC(=O)c2c1c(O)c1ccncc1c2O` yielded a TGI of 42.4 µM. For `C=CCN1CCC23c4c5ccc(O)c4OC2C(=NN=C2CCC4(O)C6Cc7ccc(O)c8c7C4(CCN6CC=C)C2O8)CCC3(O)C1C5` (stereo not drawn), the TGI was over 100 µM. In the case of `COC(=O)C1=C(C(=O)OC)C2=S(SC3=C2CCCC3)S1` (stereo not drawn), the TGI is reported as over 100 µM.

The compounds below were run on MDA-MB-231 breast (assay: NCI-60 cell line screen, 48 h).
In the case of `CCCCCCCN=C(N)c1ccc(N2CCN(c3ccc(C(N)=NCCCCCCC)cc3)CC2)cc1`, the GI50 is reported as 0.165 µM and the TGI is reported as 0.703 µM. In the case of `COc1cc(/C=C\c2cc(OC)c(OC)c(OC)c2)cc(N/C=C\C(=O)c2cc(OC)c(OC)c(OC)c2)c1OC`, the GI50 is reported as 4.01 µM and the TGI is reported as over 100 µM. With `Clc1nc(Cl)nc(Nc2cccc3ccccc23)n1` the GI50 was 63.9 µM and the TGI was over 100 µM.

These compounds were tested on NCI-H460 lung (assay: NCI-60 cell line screen, 48 h).
For `Cn1cnnc1Sc1c([N+](=O)[O-])ncn1C`, the TGI was over 100 µM. `C=CCC1(CN(C)C)CC/C(=C\c2ccc(Cl)cc2)C1=O` (stereo not drawn) showed a TGI of 45.6 µM. `C[Si](C)(C)/C(I)=C/CO` showed a TGI of 46.3 µM. For `CC(=O)N1CCC(=O)/C(=C/c2ccccc2)C1`, the TGI was over 100 µM. Compound `CCCCCCCN=C(N)c1ccc(N2CCN(c3ccc(C(N)=NCCCCCCC)cc3)CC2)cc1` has a TGI of over 80.8 µM. `C[Si](C)(C)/C(Br)=C\CCN1C(=O)CCC1=O` gave a TGI of over 100 µM. `Cc1ccc(S(=O)OCc2c(C)c(C)c(COS(=O)c3ccc(C)cc3)c(C)c2C)cc1` (stereo not drawn) was tested, and the TGI was over 100 µM. `C[C@]12CCC(=O)C=C1CC[C@@H]1C2CC[C@]2(C)Nc3[nH]ncc3CC12` (stereo partly drawn) showed a TGI of over 100 µM.

Source: PubChem BioAssay (NCI)
